Assay results from ChEMBL document CHEMBL1201862, “PubChem BioAssay data set” (2004).
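Step 1: Grow cells in 96-well plates. Step 2: Expose to compound for 48 hours at 5 concentrations. Step 3: Interpolate endpoints linearly; if unreached, use highest concentration. Here, GI50 denotes the concentration required for 50% inhibition of growth.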 Activity calls are given as the source filed them. No stated cut-off is given here; in the data, active = GI50 up to about 1.1 µM and inactive = higher.

How the values were obtained:
Assay in all cases: NCI-60 cell line screen, 48 h
A498 = tested on: A498
Hs-578T = tested on: Hs-578T
SK-MEL-5 = tested on: SK-MEL-5
SF-295 = tested on: SF-295
RPMI-8226 = tested on: RPMI-8226
NCI-H226 = tested on: NCI-H226
EKVX = tested on: EKVX
MDA-MB-435 = tested on: MDA-MB-435
A549 = tested on: A549
CAKI-1 = tested on: CAKI-1
M14 = tested on: M14
TK-10 = tested on: TK-10
OVCAR-3 = tested on: OVCAR-3
MDA-MB-231 = tested on: MDA-MB-231
SK-MEL-28 = tested on: SK-MEL-28
NCI-H23 = tested on: NCI-H23
UO-31 = tested on: UO-31
MOLT-4 = tested on: MOLT-4
HCT-15 = tested on: HCT-15
OVCAR-8 = tested on: OVCAR-8

Row | SMILES | GI50 (A498) | GI50 (Hs-578T) | GI50 (SK-MEL-5) | GI50 (SF-295) | GI50 (RPMI-8226) | GI50 (NCI-H226) | GI50 (EKVX) | GI50 (MDA-MB-435) | GI50 (A549) | GI50 (CAKI-1) | GI50 (M14) | GI50 (TK-10) | GI50 (OVCAR-3) | GI50 (MDA-MB-231) | GI50 (SK-MEL-28) | GI50 (NCI-H23) | GI50 (UO-31) | GI50 (MOLT-4) | GI50 (HCT-15) [µM] | GI50 (OVCAR-8)
1 | COc1cccc(C2c3cc4c(cc3OC(NNC(N)=O)C2C)OCO4)c1O (stereo not given) | 0.83 µM (active) | 0.741 µM (active) | 0.345 µM (active) | 0.593 µM (active) | 2.32 µM (inactive) | 2 µM (inactive) | 8.26 µM (inactive) | 0.216 µM (active) | 1.92 µM (inactive) | 3.11 µM (inactive) | 0.513 µM (active) | 9.18 µM (inactive) | 0.783 µM (active) | 3.94 µM (inactive) | 1.99 µM (inactive) | 3.17 µM (inactive) | 8.39 µM (inactive) | 1.42 µM (inactive) | 1.08 | 2.46 µM (inactive)
2 | COc1ccc(O)c(/C=N/NC(=S)N2CCCCC2)c1 | 12.1 µM (inactive) | 31 µM (inactive) | 2.02 µM (inactive) | 3.33 µM (inactive) | 1.05 µM (active) | 1.07 µM (active) | 4.38 µM (inactive) | 6.07 µM (inactive) | 1.81 µM (inactive) | 2.72 µM (inactive) | 0.592 µM (active) | 3.61 µM (inactive) | 0.319 µM (active) | 9.23 µM (inactive) | 3.17 µM (inactive) | 2.15 µM (inactive) | 0.746 µM (active) | 1.3 µM (inactive) | 0.611 | 1.86 µM (inactive)
3 | CC(NC1=NCCO1)c1ccco1 (stereo not given) | > 100 µM (inactive) | > 100 µM (inactive) | 86.9 µM (inactive) | > 100 µM (inactive) | > 100 µM (inactive) | > 100 µM (inactive) | > 100 µM (inactive) | > 100 µM (inactive) | > 100 µM (inactive) | > 100 µM (inactive) | > 100 µM (inactive) | > 100 µM (inactive) | > 100 µM (inactive) | > 100 µM (inactive) | > 100 µM (inactive) | > 100 µM (inactive) | > 100 µM (inactive) | > 100 µM (inactive) | > 100 | > 100 µM (inactive)
4 | CC(NNC(=O)c1ccncc1)c1ccccc1 (stereo not given) | > 100 µM (inactive) | > 100 µM (inactive) | > 100 µM (inactive) | > 100 µM (inactive) | > 100 µM (inactive) | > 100 µM (inactive) | > 100 µM (inactive) | > 100 µM (inactive) | > 100 µM (inactive) | > 100 µM (inactive) | > 100 µM (inactive) | > 100 µM (inactive) | > 100 µM (inactive) | > 100 µM (inactive) | > 100 µM (inactive) | > 100 µM (inactive) | > 100 µM (inactive) | > 100 µM (inactive) | > 100 | > 100 µM (inactive)
5 | CC(C)(C)c1cc(C(=O)/C=C/C=C/c2ccccc2)cc(C(C)(C)C)c1O | 20.6 µM (inactive) | 25.7 µM (inactive) | 11.3 µM (inactive) | 27.2 µM (inactive) | 6.97 µM (inactive) | 24.3 µM (inactive) | 25.4 µM (inactive) | 11.2 µM (inactive) | 17.8 µM (inactive) | 29 µM (inactive) | 17.2 µM (inactive) | 19.5 µM (inactive) | 27.4 µM (inactive) | 19.4 µM (inactive) | 30.5 µM (inactive) | 27.2 µM (inactive) | 17.6 µM (inactive) | 12.8 µM (inactive) | 15.9 | 19.5 µM (inactive)
6 | CC(C)OP(=O)(OC(C)C)C(C(C)C)N(C)/C(N)=N/C#N (stereo not given) | > 100 µM (inactive) | > 100 µM (inactive) | > 100 µM (inactive) | > 100 µM (inactive) | > 100 µM (inactive) | > 100 µM (inactive) | > 100 µM (inactive) | > 100 µM (inactive) | > 100 µM (inactive) | > 100 µM (inactive) | > 100 µM (inactive) | > 100 µM (inactive) | > 100 µM (inactive) | > 100 µM (inactive) | > 100 µM (inactive) | > 100 µM (inactive) | > 100 µM (inactive) | > 100 µM (inactive) | > 100 | > 100 µM (inactive)
7 | Cc1cc(O)nc(NN2C(Cl)C(=O)C2c2ccc(Cl)cc2)n1 (stereo not given) | 18.2 µM (inactive) | 30 µM (inactive) | 12.8 µM (inactive) | 8.61 µM (inactive) | 8.55 µM (inactive) | 11.9 µM (inactive) | 16.6 µM (inactive) | 23.4 µM (inactive) | 26.3 µM (inactive) | 15.7 µM (inactive) | 13.4 µM (inactive) | 19.8 µM (inactive) | 13.6 µM (inactive) | 26.4 µM (inactive) | 18.2 µM (inactive) | 15.8 µM (inactive) | 25.6 µM (inactive) | 6.65 µM (inactive) | 15.1 | 19.1 µM (inactive)
8 | C=C1C(=O)OC2C1C(OC(=O)/C(C)=C/C)CC(O)(CCl)C1C(OC(C)=O)C=C(C)C21O (stereo not given) | 21.8 µM (inactive) | 61.9 µM (inactive) | 14.1 µM (inactive) | 58.5 µM (inactive) | 7.01 µM (inactive) | 30.3 µM (inactive) | 9.75 µM (inactive) | 20.3 µM (inactive) | 28.2 µM (inactive) | 7.11 µM (inactive) | 12.6 µM (inactive) | 13.8 µM (inactive) | 8.93 µM (inactive) | 20.1 µM (inactive) | 10.5 µM (inactive) | 16.6 µM (inactive) | 18.6 µM (inactive) | 3.69 µM (inactive) | 6.46 | 8.45 µM (inactive)
9 | O=C(OCc1ccccc1)N(CCCCN(CCCNC(=O)C(F)(F)F)C(=O)OCc1ccccc1)CCCNC(=O)C(F)(F)F | > 100 µM (inactive) | > 100 µM (inactive) | > 36.8 µM (inactive) | > 100 µM (inactive) | > 100 µM (inactive) | > 100 µM (inactive) | > 100 µM (inactive) | > 100 µM (inactive) | > 66.8 µM (inactive) | 1.56 µM (inactive) | > 100 µM (inactive) | > 100 µM (inactive) | > 100 µM (inactive) | > 100 µM (inactive) | > 100 µM (inactive) | > 100 µM (inactive) | 3.56 µM (inactive) | 8.87 µM (inactive) | > 100 | > 100 µM (inactive)
10 | NCCCCN(CCCN)C(=O)c1ccccc1 | > 100 µM (inactive) | > 100 µM (inactive) | > 100 µM (inactive) | > 100 µM (inactive) | > 100 µM (inactive) | > 100 µM (inactive) | > 100 µM (inactive) | > 100 µM (inactive) | > 100 µM (inactive) | > 100 µM (inactive) | > 100 µM (inactive) | > 100 µM (inactive) | > 100 µM (inactive) | > 100 µM (inactive) | > 100 µM (inactive) | > 100 µM (inactive) | > 100 µM (inactive) | > 100 µM (inactive) | > 100 | > 100 µM (inactive)
